“Also recorded” adds a separate entry of the source.
Experiments:
kidney allograft [1] = assay: Kidney allograft survival after transplant and discontinuation of treatment, rapamycin discontinued on Day 30 (Example 3); assay type: in vivo, Rhesus monkeys
Text: However, rapamycin administration was discontinued on Day 30 post-transplant. A control group was only administered the daily rapamycin.

[2] = test system: regulatory T cells (Tregs); assay: Immunomodulatory effect (Treg expansion) in naïve Rhesus monkeys, flow cytometry; assay type: in vivo
Experimental: An exemplary alpha-biased IL-2 variant fused to an Fc domain of human IgG1 was prepared with a full length sequence according to SEQ ID NO: 27. The immunomodulatory effect of the exemplary alpha-biased IL-2-Fc fusion protein was assessed in naïve Rhesus monkeys by a study outlined in FIG. 1A. […] Rapamycin was also administered daily from Day 0 by intramuscular injections, targeting a trough level of approximately 8-12 ng/mL. Treg populations (CD4^+CD25^+FoxP3^+ and CD4^+CD25^+CD127^lo) and other immune cell populations including CD3^+/CD8^+ cytotoxic T cells (CTL) were analyzed using flow cytometry.

kidney allograft [3] = test system: kidney allograft
Text: The effect of an exemplary alpha-biased IL-2-Fc fusion protein (SEQ ID NO: 27) on prolonged kidney allograft survival following transplant was studied in naïve Rhesus monkeys, as outlined in FIG. 1B. For the kidney transplant, animals were paired with ABO-compatible donors and mismatched for MHC haplotype of class I loci while allowing 1 or 2 MHC II haplotype matching. This degree of MHC mismatch is known to elicit a robust graft rejection and sensitization.
The alpha-biased IL-2-Fc fusion protein was administered subcutaneously at a dose of 50 μg/kg both pre- and post-transplant on Days −6, 1, 15, and 29. The kidney transplant was performed on Day 0, and rapamycin was administered daily by intramuscular injection, targeting a trough concentration of approximately 8-12 ng/mL. Rapamycin administration was discontinued on Day […] post-transplant. As a control, five monkeys were only administered the daily rapamycin. Kidney allograft biopsies were performed at 1-month and 3-months post-transplant. Blood samples were collected regularly, and samples were either analyzed at ambient temperature or frozen and stored.

Row | Molecule | time to termination post-transplant (increases in sCR and BUN or excessive weight loss) (kidney allograft [1]; control group, daily rapamycin only, FIG. 10B) | time sCR and BUN levels stable post-transplant, most cases (kidney allograft [1]; 50 μg/kg s.c. Days −6, 1, 15, 29 plus daily rapamycin until Day 30, most cases, FIG. 10A) | time sCR and BUN levels stable post-transplant, some cases (kidney allograft [1]; rapamycin discontinued Day 30, some cases) [days] | time sCR and BUN levels stable following complete withdrawal of immunosuppressive drugs (kidney allograft [1]; some cases) | percent of Tregs (CD4+CD25+FoxP3+) ([2]; 5-7 days after administration, increased from 6.21% pre-treatment, s.c. 50 or 100 μg/kg with daily rapamycin, FIG. 2A) [%] | tachyphylaxis of Treg number and percent on repeated dosing ([2]; FIGS. 3A and 3B, after each dose) | cytotoxic T cells (CTLs) during the increase in Tregs ([2]; over the course of treatment) | ratio of Tregs:CD8 cells ([2]; over the course of treatment, 50 or 100 μg/kg, FIG. 2B) | absolute number of Tregs ([2]; over the course of treatment, s.c. Days 0, 14, 28 at 50 or 100 μg/kg, daily rapamycin, FIG. 2B) | survival post-transplant, one Rhesus monkey (kidney allograft [3]; 50 μg/kg plus daily rapamycin until Day 180, longest surviving monkey) [days] | kidney graft survival, at least three of four Rhesus monkeys (kidney allograft [3]; 50 μg/kg plus daily rapamycin, at least three of four monkeys) | time creatinine and BUN / transplanted kidney stable post-transplant, some cases (kidney allograft [3]; 50 μg/kg s.c. Days −6, 1, 15, 29 plus daily rapamycin until Day 180, some cases) | time creatinine and blood urea nitrogen (BUN) stable post-transplant, most cases (kidney allograft [3]; 50 μg/kg s.c. Days −6, 1, 15, 29 plus daily rapamycin, most cases, FIGS. 4A, 4B) | Tregs (FoxP3+ CD4+ and CD127lo CD4+) in PBMCs (kidney allograft [3]; after administration, post-transplant, FIG. 8) | CD20+ B cells (kidney allograft [3]; after kidney transplant, FIG. 5) | histopathology of monkey terminated early for excessive body weight loss (kidney allograft [3]; one monkey of the fusion protein group) | blood chemistry parameters (ALT, ALP, GGT, bilirubin, protein, albumin, globulin, cholesterol, phosphate, calcium, glucose, sodium, potassium, chloride) (kidney allograft [3]; rhesus monkey, in vivo) | hematology parameters (hemoglobin, hematocrit, blood cell counts) (kidney allograft [3]; rhesus monkey, in vivo)
1 | CO[C@H]1C[C@@H]2CC[C@@H](C)[C@@](O)(O2)C(=O)C(=O)N2CCCC[C@H]2C(=O)O[C@H]([C@H](C)C[C@@H]2CC[C@@H](O)[C@H](OC)C2)CC(=O)[C@H](C)/C=C(\C)[C@@H](O)[C@@H](OC)C(=O)[C@H](C)C[C@H](C)/C=C/C=C/C=C/1C [rapamycin, reference compound] | less than 30 days | – | – | – | – | – | – | – | – | – | – | – | – | – | – | – | – | –
2 | alpha-biased IL-2-Fc fusion protein: IL2 Variant (H16L/V69A/Q74P/C125S) fused to IgG1 Fc (N297G) allotype m3; full length sequence SEQ ID NO: 27 | – | at least 40 days | ≥ 110 | up to 82 days | 38.5 | without signs of tachyphylaxis | did not coincide with an increase | significantly increased in a dose-dependent manner | significantly increased in a dose-dependent manner; also recorded: statistically significant and dose dependent | 235 | over 50 days | over 235 days | over 50 days | increase in both percent and number | decrease | did not indicate kidney rejection | fell within the expected range | normally fell within their expected ranges

Source: patent US20260028384A1, “USE OF IL-2 VARIANT FOR TREATING KIDNEY TRANSPLANT REJECTION” (Visterra, Inc., priority 2024, published 2026)
